In PMC5218480 (PLoS ONE, 2017):

Test system: MV-4-11 cells
Assay: Gene expression microarray analysis (Affymetrix PrimeView) and GSEA
Format: cell-based, human
Design: RFU PODN (11730768_x_at) / Fold change /veh PODN (11730768_x_at) / RFU LINC00158 (11744669_a_at) / Fold change /veh LINC00158 (11744669_a_at) / RFU DUSP10 (11751237_a_at) / Fold change /veh DUSP10 (11751237_a_at) / RFU ID3 (11757404_x_at) / Fold change /veh ID3 (11757404_x_at) / RFU PLEKHG5 (11737974_s_at) / Fold change /veh PLEKHG5 (11737974_s_at) / RFU LRRC4B (11730491_at) / Fold change /veh LRRC4B (11730491_at) / RFU GIMAP4 (11747438_a_at) / Fold change /veh GIMAP4 (11747438_a_at) / RFU KRT8 (11758183_x_at) / Fold change /veh KRT8 (11758183_x_at) / RFU CNN1 (11734310_a_at) / Fold change /veh CNN1 (11734310_a_at) / RFU VPS37D (11726825_at) / Fold change /veh VPS37D (11726825_at) / RFU C10orf10 (11716522_x_at) / Fold change /veh C10orf10 (11716522_x_at) / RFU KIR2DL2 /// KIR2DL4 /// KIR2DL5A /// KIR2DL5B /// KIR2DS1 /// KIR2DS2 /// KIR2DS3 /// KIR2DS4 /// KIR3DL3 /// KIR3DL3 /// KIR3DS1 (11738374_at) / Fold change /veh KIR2DL2 /// KIR2DL4 /// KIR2DL5A /// KIR2DL5B /// KIR2DS1 /// KIR2DS2 /// KIR2DS3 /// KIR2DS4 /// KIR3DL3 /// KIR3DL3 /// KIR3DS1 (11738374_at) / RFU C1QL1 (11718748_at) / Fold change /veh C1QL1 (11718748_at) / RFU TMPRSS4 (11747572_a_at) / Fold change /veh TMPRSS4 (11747572_a_at) / RFU HAMP (11756126_x_at) / Fold change /veh HAMP (11756126_x_at) / RFU RNFT2 (11725882_a_at) / Fold change /veh RNFT2 (11725882_a_at) / RFU NR4A2 (11747474_a_at) / Fold change /veh NR4A2 (11747474_a_at) / RFU ABCC12 (11746883_a_at) / Fold change /veh ABCC12 (11746883_a_at) / RFU TMEM136 (11760407_x_at) / Fold change /veh TMEM136 (11760407_x_at) / RFU CLDN22 /// WWC2 (11732394_at) / Fold change /veh CLDN22 /// WWC2 (11732394_at) / RFU HLA-DPB1 (11760878_x_at) / Fold change /veh HLA-DPB1 (11760878_x_at) / RFU SPINT1 (11716480_a_at) / Fold change /veh SPINT1 (11716480_a_at) / RFU GAP43 (11754022_s_at) / Fold change /veh GAP43 (11754022_s_at) / RFU A4GNT (11735810_at) / Fold change /veh A4GNT (11735810_at) / RFU PRB3 (11715151_x_at) / Fold change /veh PRB3 (11715151_x_at) / RFU TUBB4B (11761932_at) / Fold change /veh TUBB4B (11761932_at) / RFU CAPN14 (11732068_a_at) / Fold change /veh CAPN14 (11732068_a_at) / RFU TMCC2 (11721928_a_at) / Fold change /veh TMCC2 (11721928_a_at) / RFU IRGQ (11745062_a_at) / Fold change /veh IRGQ (11745062_a_at) / RFU FAM174B (11720279_a_at) / Fold change /veh FAM174B (11720279_a_at) / RFU TMPRSS4 (11748680_a_at) / Fold change /veh TMPRSS4 (11748680_a_at) / RFU FAM212B (11763350_a_at) / Fold change /veh FAM212B (11763350_a_at) / RFU PLEKHG5 (11743358_a_at) / Fold change /veh PLEKHG5 (11743358_a_at) / RFU ZSCAN30 (11745921_a_at) / Fold change /veh ZSCAN30 (11745921_a_at) / RFU CMKLR1 (11741424_a_at) / Fold change /veh CMKLR1 (11741424_a_at) / RFU LOC101060620 /// MAPK8IP1 (11723275_at) / Fold change /veh LOC101060620 /// MAPK8IP1 (11723275_at) / RFU SPTSSB (11747773_x_at) / Fold change /veh SPTSSB (11747773_x_at) / RFU PRSS12 (11739890_at) / Fold change /veh PRSS12 (11739890_at) / RFU BIN1 (11741810_x_at) / Fold change /veh BIN1 (11741810_x_at) / RFU WNT11 (11732464_a_at) / Fold change /veh WNT11 (11732464_a_at) / RFU C10orf10 (11716521_a_at) / Fold change /veh C10orf10 (11716521_a_at) / RFU C5orf56 (11738089_at) / Fold change /veh C5orf56 (11738089_at) / RFU CYB561 (11721691_x_at) / Fold change /veh CYB561 (11721691_x_at) / RFU ANKRD19P (11752326_a_at) / Fold change /veh ANKRD19P (11752326_a_at) / RFU OR2T12 /// OR2T33 /// OR2T8 (11738714_s_at) / Fold change /veh OR2T12 /// OR2T33 /// OR2T8 (11738714_s_at) / RFU VCAN (11748164_a_at) / Fold change /veh VCAN (11748164_a_at) / RFU JSRP1 (11732532_at) / Fold change /veh JSRP1 (11732532_at) / RFU KRTAP10-11 (11738290_x_at) / Fold change /veh KRTAP10-11 (11738290_x_at) / RFU MYO3A (11730013_a_at) / Fold change /veh MYO3A (11730013_a_at) / RFU EBF3 (11725865_a_at) / Fold change /veh EBF3 (11725865_a_at) / RFU CAMK2N1 (11719241_x_at) / Fold change /veh CAMK2N1 (11719241_x_at) / RFU C5orf56 (11738088_a_at) / Fold change /veh C5orf56 (11738088_a_at) / RFU OLFML3 (11715873_a_at) / Fold change /veh OLFML3 (11715873_a_at) / RFU LOC100653217 /// NTM (11731650_a_at) / Fold change /veh LOC100653217 /// NTM (11731650_a_at) / RFU MAPK11 (11762145_a_at) / Fold change /veh MAPK11 (11762145_a_at) / RFU FIZ1 (11724087_x_at) / Fold change /veh FIZ1 (11724087_x_at) / RFU OASL (11726364_x_at) / Fold change /veh OASL (11726364_x_at) / RFU SOX15 (11748057_x_at) / Fold change /veh SOX15 (11748057_x_at) / RFU CD79A (11719716_a_at) / Fold change /veh CD79A (11719716_a_at) / RFU HIST1H1D (11736915_at) / Fold change /veh HIST1H1D (11736915_at) / RFU CASKIN2 (11723855_a_at) / Fold change /veh CASKIN2 (11723855_a_at) / RFU LOC730098 (11760151_x_at) / Fold change /veh LOC730098 (11760151_x_at) / RFU OR4N2 (11742367_at) / Fold change /veh OR4N2 (11742367_at) / RFU PRRT2 (11749266_a_at) / Fold change /veh PRRT2 (11749266_a_at) / RFU SNX32 (11753110_a_at) / Fold change /veh SNX32 (11753110_a_at) / RFU CDHR5 (11726645_a_at) / Fold change /veh CDHR5 (11726645_a_at) / RFU RCAN1 (11760418_a_at) / Fold change /veh RCAN1 (11760418_a_at) / RFU FAM167A (11723789_a_at) / Fold change /veh FAM167A (11723789_a_at) / RFU FAM26E (11764081_at) / Fold change /veh FAM26E (11764081_at) / RFU ISYNA1 (11749810_s_at) / Fold change /veh ISYNA1 (11749810_s_at) / RFU ACY1 (11761880_at) / Fold change /veh ACY1 (11761880_at) / RFU 11764098_at / Fold change /veh 11764098_at / RFU SAMD14 (11745864_x_at) / Fold change /veh SAMD14 (11745864_x_at) / RFU NPB (11741838_a_at) / Fold change /veh NPB (11741838_a_at) / RFU TMPRSS6 (11731388_a_at) / Fold change /veh TMPRSS6 (11731388_a_at) / RFU KRTAP10-2 (11738614_at) / Fold change /veh KRTAP10-2 (11738614_at) / RFU ARHGAP8 /// PRR5-ARHGAP8 (11727945_x_at) / Fold change /veh ARHGAP8 /// PRR5-ARHGAP8 (11727945_x_at) / RFU KRTAP5-7 /// NADSYN1 (11734609_at) / Fold change /veh KRTAP5-7 /// NADSYN1 (11734609_at) / RFU RASL12 (11751679_a_at) / Fold change /veh RASL12 (11751679_a_at) / RFU CDKN2B (11736163_a_at) / Fold change /veh CDKN2B (11736163_a_at) / RFU PRF1 (11729649_at) / Fold change /veh PRF1 (11729649_at) / RFU, ZNF638 /// ZNF638-IT1 / Fold change vs veh, ZNF638 /// ZNF638-IT1 / RFU, PANK3 / Fold change vs veh, PANK3 / RFU, SH3YL1 / Fold change vs veh, SH3YL1 / RFU, ZEB2 / Fold change vs veh, ZEB2 / RFU, NRIP1 / Fold change vs veh, NRIP1 / RFU, PTTG1IP / Fold change vs veh, PTTG1IP / RFU, CAPN2 / Fold change vs veh, CAPN2 / RFU, MED14 / Fold change vs veh, MED14 / RFU, SNORA58 / Fold change vs veh, SNORA58 / RFU, C1orf63 / Fold change vs veh, C1orf63 / RFU, LRRFIP1 / Fold change vs veh, LRRFIP1 / RFU, NDUFAF7 / Fold change vs veh, NDUFAF7 / RFU, SLC12A2 / Fold change vs veh, SLC12A2 / RFU, IBTK / Fold change vs veh, IBTK / RFU, ESF1 / Fold change vs veh, ESF1 / Fold change vs veh, TMEM50B / RFU, TAOK1 / Fold change vs veh, TAOK1 / RFU, ACBD3 / Fold change vs veh, ACBD3 / RFU, TMA16 / Fold change vs veh, TMA16 / RFU, RWDD3 / Fold change vs veh, RWDD3 / RFU, BCAT1 / Fold change vs veh, BCAT1 / RFU, EDEM3 / Fold change vs veh, EDEM3 / RFU, TMEM33 / Fold change vs veh, TMEM33 / RFU, WDR75 / Fold change vs veh, WDR75 / RFU, AHCTF1 / Fold change vs veh, AHCTF1 / RFU, TFRC / Fold change vs veh, TFRC / RFU, ZDHHC17 / Fold change vs veh, ZDHHC17 / RFU, NOM1 / Fold change vs veh, NOM1 / RFU, ARL8B / Fold change vs veh, ARL8B / RFU, ZBTB11 / Fold change vs veh, ZBTB11 / RFU, TAMM41 / Fold change vs veh, TAMM41 / RFU, KIAA1704 /// LOC100996395 / Fold change vs veh, KIAA1704 /// LOC100996395 / RFU, ING1 / Fold change vs veh, ING1 / RFU, TRMT61B / Fold change vs veh, TRMT61B / RFU, FUBP3 / Fold change vs veh, FUBP3 / RFU, TP53 / Fold change vs veh, TP53 / RFU, TNKS2 / Fold change vs veh, TNKS2 / RFU, ZFP14 / Fold change vs veh, ZFP14 / RFU, ACTR2 / Fold change vs veh, ACTR2 / RFU, PPP3R1 / Fold change vs veh, PPP3R1 / RFU, PIK3R1 / Fold change vs veh, PIK3R1 / RFU, HNRNPA1 / Fold change vs veh, HNRNPA1 / RFU, RNF170 / Fold change vs veh, RNF170 / RFU, ZNF28 / Fold change vs veh, ZNF28 / RFU, RNGTT / Fold change vs veh, RNGTT / RFU, OGT / Fold change vs veh, OGT / RFU, BRD1 / Fold change vs veh, BRD1 / RFU, MARS / Fold change vs veh, MARS / RFU, ZNF655 / Fold change vs veh, ZNF655 / RFU, FAHD1 / Fold change vs veh, FAHD1 / RFU, BDP1 / Fold change vs veh, BDP1 / RFU, LRRCC1 / Fold change vs veh, LRRCC1 / RFU, ARID1A / Fold change vs veh, ARID1A / RFU, ZNF146 / Fold change vs veh, ZNF146 / RFU, ZNF330 / Fold change vs veh, ZNF330 / RFU, GPN3 / Fold change vs veh, GPN3 / RFU, C9orf123 / Fold change vs veh, C9orf123 / RFU, N4BP2L2 / Fold change vs veh, N4BP2L2 / RFU, ARFIP1 / Fold change vs veh, ARFIP1 / RFU, FAM179B / Fold change vs veh, FAM179B / RFU, BCL10 / Fold change vs veh, BCL10 / RFU, UHRF1BP1L / Fold change vs veh, UHRF1BP1L / RFU, BET1 / Fold change vs veh, BET1 / RFU, CNOT2 / Fold change vs veh, CNOT2 / RFU, ZNF268 / Fold change vs veh, ZNF268 / Fold change vs veh, ZNF507 / RFU, DGCR2 / Fold change vs veh, DGCR2 / RFU, WDSUB1 / Fold change vs veh, WDSUB1 / Fold change vs veh, HSP90B1 /// MIR3652 / RFU, ADSS / Fold change vs veh, ADSS / RFU, GK / Fold change vs veh, GK / RFU, ZNF148 / Fold change vs veh, ZNF148 / RFU, TAF9 / Fold change vs veh, TAF9 / RFU, SLC1A5 / Fold change vs veh, SLC1A5 / RFU, SLMO2 / Fold change vs veh, SLMO2 / RFU, ABCC4 / Fold change vs veh, ABCC4 / RFU, LOC101060439 /// RAP1B / Fold change vs veh, LOC101060439 /// RAP1B / RFU, RFX7 / Fold change vs veh, RFX7 / RFU, GTPBP10 / Fold change vs veh, GTPBP10 / RFU, CNEP1R1 / Fold change vs veh, CNEP1R1 / RFU, BIVM-ERCC5 /// ERCC5 / Fold change vs veh, BIVM-ERCC5 /// ERCC5 / RFU, ILF3 / Fold change vs veh, ILF3 / RFU 11762660_at / Fold change /veh 11762660_at / RFU VCAN (11757783_s_at) / Fold change /veh VCAN (11757783_s_at) / RFU DDX43 (11728927_at) / Fold change /veh DDX43 (11728927_at) / RFU KRT8 (11758188_x_at) / Fold change /veh KRT8 (11758188_x_at) / RFU NKD1 (11759106_at) / Fold change /veh NKD1 (11759106_at) / RFU SRD5A1 (11742802_a_at) / Fold change /veh SRD5A1 (11742802_a_at) / RFU TPSAB1 /// TPSB2 (11721975_s_at) / Fold change /veh TPSAB1 /// TPSB2 (11721975_s_at) / RFU GSTM3 (11746129_a_at) / Fold change /veh GSTM3 (11746129_a_at) / RFU IL23R (11737362_x_at) / Fold change /veh IL23R (11737362_x_at) / RFU TMEM51 (11727254_a_at) / Fold change /veh TMEM51 (11727254_a_at) / RFU PIWIL2 (11732686_x_at) / Fold change /veh PIWIL2 (11732686_x_at) / RFU ORM1 (11744905_x_at) / Fold change /veh ORM1 (11744905_x_at) / RFU CCDC152 (11743942_at) / Fold change /veh CCDC152 (11743942_at) / RFU ECM1 (11717891_a_at) / Fold change /veh ECM1 (11717891_a_at) / RFU IL23R (11748794_a_at) / Fold change /veh IL23R (11748794_a_at) / RFU TNFAIP8L3 (11732012_x_at) / Fold change /veh TNFAIP8L3 (11732012_x_at) / RFU MBOAT4 (11741988_at) / Fold change /veh MBOAT4 (11741988_at) / RFU 11764193_at / Fold change /veh 11764193_at / RFU TMEM53 (11763286_at) / Fold change /veh TMEM53 (11763286_at) / RFU MAGEB2 (11727129_at) / Fold change /veh MAGEB2 (11727129_at) / RFU TMEM200A (11744735_a_at) / Fold change /veh TMEM200A (11744735_a_at) / RFU CCDC152 (11751479_a_at) / Fold change /veh CCDC152 (11751479_a_at) / RFU FAM211A (11726209_a_at) / Fold change /veh FAM211A (11726209_a_at) / RFU RGS16 (11746705_a_at) / Fold change /veh RGS16 (11746705_a_at) / RFU VCAN (11755009_s_at) / Fold change /veh VCAN (11755009_s_at) / RFU RHOB (11743442_s_at) / Fold change /veh RHOB (11743442_s_at) / RFU RGS16 (11720943_a_at) / Fold change /veh RGS16 (11720943_a_at) / RFU RGS16 (11720944_at) / Fold change /veh RGS16 (11720944_at) / RFU, VPS4B / Fold change vs veh, VPS4B / RFU, CREB1 / Fold change vs veh, CREB1 / RFU, DNAJC13 / Fold change vs veh, DNAJC13 / RFU, GNAQ / Fold change vs veh, GNAQ / RFU, CDK5R1 / Fold change vs veh, CDK5R1 / RFU, ZRANB3 / Fold change vs veh, ZRANB3 / RFU, CUL4A / Fold change vs veh, CUL4A / RFU, CCNY / Fold change vs veh, CCNY / RFU, UFL1 / Fold change vs veh, UFL1 / RFU, COG3 / Fold change vs veh, COG3 / RFU, DIAPH2 / Fold change vs veh, DIAPH2 / RFU, SKA2 / Fold change vs veh, SKA2 / RFU, AFF3 / Fold change vs veh, AFF3 / RFU, LMF1 / Fold change vs veh, LMF1 / RFU, IPO11 / Fold change vs veh, IPO11 / RFU, DFFB / Fold change vs veh, DFFB / RFU, FOXP1 / Fold change vs veh, FOXP1 / RFU, CARD8 / Fold change vs veh, CARD8 / RFU, STRN3 / Fold change vs veh, STRN3 / RFU, ADK / Fold change vs veh, ADK / RFU, RASSF2 / Fold change vs veh, RASSF2 / RFU, WIPF1 / Fold change vs veh, WIPF1 / RFU, LARP1B / Fold change vs veh, LARP1B / RFU, RASA1 / Fold change vs veh, RASA1 / RFU, RB1 / Fold change vs veh, RB1 / RFU, PPFIA1 / Fold change vs veh, PPFIA1 / RFU, MAT2A / Fold change vs veh, MAT2A / RFU, CCT5 / Fold change vs veh, CCT5 / RFU, WDR92 / Fold change vs veh, WDR92 / RFU, CUX1 / Fold change vs veh, CUX1 / RFU, TTC7A / Fold change vs veh, TTC7A / RFU, TMEM135 / Fold change vs veh, TMEM135 / RFU, DEPTOR / Fold change vs veh, DEPTOR / RFU, CPM / Fold change vs veh, CPM / RFU, DNAJB6 / Fold change vs veh, DNAJB6 / RFU, CACNA2D3 / Fold change vs veh, CACNA2D3 / RFU, DTX4 / Fold change vs veh, DTX4 / RFU, TFCP2 / Fold change vs veh, TFCP2 / RFU, GMCL1 /// GMCL1P1 / Fold change vs veh, GMCL1 /// GMCL1P1 / RFU, AEBP2 / Fold change vs veh, AEBP2 / RFU, SNHG1 /// SNORD22 /// SNORD25 /// SNORD26 /// SNORD27 /// SNORD28 /// SNORD29 /// SNORD31 / Fold change vs veh, SNHG1 /// SNORD22 /// SNORD25 /// SNORD26 /// SNORD27 /// SNORD28 /// SNORD29 /// SNORD31 / Fold change (Aza/veh), C12orf56 (ProbeSet 11735607_a_at) / Fold change (ACY-1035/veh), C12orf56 (ProbeSet 11735607_a_at) / Fold change (Aza/veh), FGFR1OP (ProbeSet 11751329_s_at) / Fold change (ACY-1035/veh), FGFR1OP (ProbeSet 11751329_s_at) / Fold change (Aza/veh), VPS36 (ProbeSet 11739960_a_at) / Fold change (ACY-1035/veh), VPS36 (ProbeSet 11739960_a_at) / RFU SYPL1 (11715823_x_at) / Fold change /veh SYPL1 (11715823_x_at) / RFU IGFBP7 (11715501_s_at) / Fold change /veh IGFBP7 (11715501_s_at) / RFU REEP3 (11722064_at) / Fold change /veh REEP3 (11722064_at) / RFU IGLL1 (11728026_x_at) / Fold change /veh IGLL1 (11728026_x_at): dose or concentration left out as unconfirmed
Conditions: ProbeSet 11728676_at; LIST B

## Nc1ncn([C@@H]2O[C@H](CO)[C@@H](O)[C@H]2O)c(=O)n1 [azacitidine]
  RFU, MED14: 205.61 RFU
